Measured values taken from patent US11236129B2, “IL-17A binding peptides and medical uses thereof” (Dompe' Farmaceutici S.P.A., priority 2018, dated 2022).
Read-outs that look alike come from different tables or passages of the source. Residues, ends and D or L forms follow the SMILES beside them.

Tests used:
[1] = test system: human corneal epithelial cells (hCEPIC); test: Permeability test across stratified human corneal epithelial cells; type: in vitro ADME; settings: 50 μM, stratified human corneal epithelial cells
Description: (§1) The objective of this study was to evaluate the apparent permeability coefficient (Papp) value of the peptides across stratified human corneal epithelial cells. All peptides were tested at 50 μM in duplicate.
(§2) In particular, human corneal epithelial cells (hCEPIC) were stratified on Transwell cell culture inserts (Corning, N.Y., USA). The permeation experiments were performed taking samples from receiver chambers at 5, 30, 60 minutes time points and from donor chambers at the same time points. Each aliquot collected was analyzed by HPLC instrument (Knauer) equipped with C18 Vertex Plus Column (Knauer) thermostatically controlled at 40° C. The rate (apparent permeability coefficient, Papp) of the study compounds was calculated and compared to the Papp values of the low and high permeability markers, 6-carboxyfluorescein and Rhodamine B, respectively.
(§3) The apparent permeability coefficient (Papp) was calculated according to Equation: Papp=(I/A*C0)(dM/dt)
(§4) where dM/dt is the flux (nanomoles per second) across the cell layers;
(§5) A (square centimeters) is the exposed surface area of the insert membrane;
(§6) C0 is the initial drug concentration (micromolar) in the donor compartment at t=0 (Xiang et al., Drug Metab Dispos. 2009 May; 37(5):992-8.

[2] = molecular target: IL-17RA/IL17RC dimerization induced by IL-17A (Homo sapiens, UniProt Q16552); test: IL-17RA/IL17RC dimerization assay in response to IL-17A (PathHunter Cytokine Receptor Assay); type: cell-based; settings: IL-17A at EC80; read-out: IC50 in IL-17RA/IL7RC dimerization assay
IL-17RA/IL17RC dimerization induced by IL-17A, sequence (Q16552 24-155): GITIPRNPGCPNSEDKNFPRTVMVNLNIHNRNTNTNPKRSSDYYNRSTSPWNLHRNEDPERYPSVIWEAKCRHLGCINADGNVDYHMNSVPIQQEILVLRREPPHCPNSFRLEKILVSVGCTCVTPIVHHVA
Summary of the method: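 Receptor dimerization was read as chemiluminescence from complemented β-galactosidase after IL-17A at EC80 concentration for 6–16 h at 37 °C. Peptides were added 60 min before agonist, at 37 °C or room temperature, with 1% vehicle. Percent inhibition used the EC80-stimulated and vehicle wells as references.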

[3] = Isoelectric point, log D and log P (SiriusT3); type: physicochemical; settings: for IP (isoelectric point): 25±1° C., 0.15 M KCl
[4] = type: physicochemical; settings: pH 7.8
Summary of the method: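 Peptides dissolved in phosphate buffer pH 7.8 as 10 mM stocks (more dilute for less soluble ones) and stored at 25 °C. Content measured by reversed-phase UHPLC (C18, 0.5% formic acid water/acetonitrile gradient, DAD 220-400 nm, ESI-MS ion trap) after 1:100 dilution to 100 μM, against 100 μM standards, at T0, 3 days and 1 week.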

[5] = Permeability test across stratified human corneal epithelial cells; type: in vitro ADME; settings: Permeability (Papp)
Description: as §1, §2, §3, §4, §5, §6

[6] = octanol/ISA water, read-out: logP
[7] = pH 7.4, pH 7.4, octanol/ISA water, read-out: Log D (7.4)

Row | SMILES | Permeability (Papp) [1] | IC50 [2] [nM] | IP (isoelectric point) [3] | logP ([3]; logP) | logD ([3]; pH 7.4, Log D (7.4)) | solubility [4] [mM] | Papp [5] [×10⁻⁶ cm/s] | logP [3, 6] | logD [3, 7]
1 | O=C(O)c1ccc2c(c1)C1(OC2=O)c2ccc(O)cc2Oc2cc(O)ccc21 [6-carboxyfluorescein, reference compound] | 0.61±0.33 10^−6 cm/sec |  |  |  |  |  |  |  | 
2 | CC[C@H](C)[C@H](NC(C)=O)C(=O)N[C@@H](Cc1c[nH]cn1)C(=O)N[C@H](C(=O)N[C@H](C(=O)N[C@H](C(=O)N1CCC[C@H]1C(=O)N[C@@H](C)C(=O)N[C@@H](CC(=O)O)C(=O)N[C@@H](CC(C)C)C(=O)N[C@@H](Cc1c[nH]c2ccccc12)C(=O)N[C@@H](CC(=O)O)C(=O)N[C@@H](Cc1c[nH]c2ccccc12)C(=O)N[C@H](C(=O)N[C@@H](CCC(=O)O)C(=O)N[C@@H](CCCCN)C(N)=O)[C@@H](C)CC)[C@@H](C)CC)[C@@H](C)O)C(C)C [SEQ ID NO: 11] (Ac-IHVTIPADLWDWIEK-NH2) |  | < 400 | 4.25 | 1.05 | -2.92 | > 10 | 28 |  | 
3 | CC[C@H](C)[C@H](NC(C)=O)C(=O)N[C@@H](Cc1c[nH]cn1)C(=O)N[C@H](C(=O)N[C@H](C(=O)N[C@H](C(=O)N1CCC[C@H]1C(=O)N[C@@H](C)C(=O)N[C@@H](CC(=O)O)C(=O)N[C@@H](CC(C)C)C(=O)N[C@@H](Cc1c[nH]c2ccccc12)C(=O)N[C@@H](CC(=O)O)C(=O)N[C@@H](Cc1c[nH]c2ccccc12)C(=O)N[C@H](C(=O)N[C@@H](CCCNC(=N)N)C(=O)N[C@@H](CCCNC(=N)N)C(N)=O)C(C)C)[C@@H](C)CC)[C@@H](C)O)C(C)C [SEQ ID NO: 14] (Ac-IHVTIPADLWDWVRR-NH2) |  | < 400 | 8.99 | -5.4 | -2.8 | > 10 | 28.9 |  | 
4 | CC[C@H](C)[C@H](NC(=O)[C@H](Cc1c[nH]c2ccccc12)NC(=O)[C@H](CCC(=O)O)NC(=O)[C@H](Cc1ccc(O)cc1)NC(=O)[C@H](CC(C)C)NC(=O)[C@H](CC(=O)O)NC(=O)[C@H](C)NC(=O)[C@@H]1CCCN1C(=O)[C@@H](NC(=O)[C@@H](NC(=O)[C@@H](NC(=O)[C@H](CCSC)NC(=O)[C@@H](NC(=O)CNC(=O)[C@H](C)NC(=O)CNC(=O)[C@@H]1CCCN1C(=O)[C@@H](NC(C)=O)C(C)C)C(C)C)C(C)C)[C@@H](C)O)[C@@H](C)CC)C(=O)N[C@@H](CCC(=O)O)C(=O)N[C@@H](CCC(=O)O)C(N)=O [SEQ ID NO: 35] (Ac-VPGAGVMVTIPADLYEWIEE-NH2) |  | < 1000 | 5.14 |  |  | > 10 |  | -5.43 | -3.52
5 | CC[C@H](C)[C@H](NC(=O)[C@H](Cc1c[nH]c2ccccc12)NC(=O)[C@H](CCC(=O)O)NC(=O)[C@H](Cc1ccc(O)cc1)NC(=O)[C@H](CC(C)C)NC(=O)[C@H](CC(=O)O)NC(=O)[C@H](C)NC(=O)[C@@H]1CCCN1C(=O)[C@@H](NC(=O)[C@@H](NC(=O)[C@@H](NC(=O)[C@H](CCSC)NC(=O)[C@@H](NC(=O)CNC(=O)[C@H](CCCCN)NC(=O)CNC(=O)[C@@H]1CCCN1C(=O)[C@@H](NC(C)=O)C(C)C)C(C)C)C(C)C)[C@@H](C)O)[C@@H](C)CC)C(=O)N[C@@H](CCC(=O)O)C(=O)N[C@@H](CCC(=O)O)C(N)=O [SEQ ID NO: 36] (Ac-VPGKGVMVTIPADLYEWIEE-NH2) |  | < 1000 | 8.13 |  |  | ≥ 0.1 |  | -1.09 | -1.24
6 | CC[C@H](C)[C@H](NC(=O)[C@H](Cc1c[nH]c2ccccc12)NC(=O)[C@H](CCC(=O)O)NC(=O)[C@H](Cc1ccc(O)cc1)NC(=O)[C@H](CC(C)C)NC(=O)[C@H](CC(=O)O)NC(=O)[C@H](C)NC(=O)[C@@H]1CCCN1C(=O)[C@@H](NC(=O)[C@@H](NC(=O)[C@@H](NC(=O)[C@H](CCSC)NC(=O)[C@@H](NC(C)=O)C(C)C)C(C)C)[C@@H](C)O)[C@@H](C)CC)C(=O)N[C@@H](CCC(=O)O)C(=O)N[C@@H](CCC(=O)O)C(=O)N[C@H](C(=O)N1CCC[C@H]1C(=O)NCC(=O)N[C@@H](C)C(=O)NCC(=O)N[C@H](C(=O)N1CCC[C@H]1C(=O)NCC(=O)N[C@@H](C)C(=O)NCC(N)=O)C(C)C)C(C)C [SEQ ID NO: 37] (Ac-VMVTIPADLYEWIEEVPGAGVPGAG-NH2) |  | < 200 | 5.14 |  |  | > 10 |  |  | -3.9
7 | CC[C@H](C)[C@H](NC(=O)[C@H](Cc1c[nH]c2ccccc12)NC(=O)[C@H](CCC(=O)O)NC(=O)[C@H](Cc1ccc(O)cc1)NC(=O)[C@H](CC(C)C)NC(=O)[C@H](CC(=O)O)NC(=O)[C@H](C)NC(=O)[C@@H]1CCCN1C(=O)[C@@H](NC(=O)[C@@H](NC(=O)[C@@H](NC(=O)[C@H](CCSC)NC(=O)[C@@H](NC(=O)CNC(=O)[C@H](CC(=O)O)NC(=O)CNC(=O)[C@@H]1CCCN1C(=O)[C@@H](NC(C)=O)C(C)C)C(C)C)C(C)C)[C@@H](C)O)[C@@H](C)CC)C(=O)N[C@@H](CCC(=O)O)C(=O)N[C@@H](CCC(=O)O)C(N)=O [SEQ ID NO: 39] (Ac-VPGDGVMVTIPADLYEWIEE-NH2) |  | < 200 | 4.2 |  |  | > 10 |  | -5.36 | -2.86
8 | CC[C@H](C)[C@H](NC(=O)[C@H](Cc1c[nH]c2ccccc12)NC(=O)[C@H](CCC(=O)O)NC(=O)[C@H](Cc1ccc(O)cc1)NC(=O)[C@H](CC(C)C)NC(=O)[C@H](CC(=O)O)NC(=O)[C@H](C)NC(=O)[C@@H]1CCCN1C(=O)[C@@H](NC(=O)[C@@H](NC(=O)[C@@H](NC(=O)[C@H](CCSC)NC(=O)[C@@H](NC(C)=O)C(C)C)C(C)C)[C@@H](C)O)[C@@H](C)CC)C(=O)N[C@@H](CCC(=O)O)C(=O)N[C@@H](CCC(=O)O)C(=O)N[C@H](C(=O)N1CCC[C@H]1C(=O)NCC(=O)N[C@@H](CC(=O)O)C(=O)NCC(N)=O)C(C)C [SEQ ID NO: 40] (Ac-VMVTIPADLYEWIEEVPGDG-NH2) |  | < 200 | 4.21 |  |  | > 10 |  | -4.93 | -3.5
9 | CC(=O)N[C@@H](CC(=O)O)C(=O)N[C@@H](CC(C)C)C(=O)N[C@@H](CO)C(=O)N[C@@H](C)C(=O)N[C@H](C(=O)N[C@H]1CSSC[C@@H](C(=O)N[C@@H](Cc2c[nH]cn2)C(N)=O)NC(=O)[C@H](CCC(=O)O)NC(=O)[C@@H]2CCCN2C(=O)[C@H](CC(=O)O)NC(=O)[C@H](Cc2c[nH]c3ccccc23)NC(=O)[C@@H]2CCCN2C(=O)[C@H](Cc2ccccc2)NC(=O)[C@H](C)NC(=O)[C@H](Cc2c[nH]c3ccccc23)NC1=O)C(C)C [SEQ ID NO: 41] |  | < 1000 | 3.54 |  |  | > 10 |  | 1.24 | -1.94
10 | CC[C@H](C)[C@H](NC(=O)[C@@H](NC(=O)[C@H](Cc1ccccc1)NC(=O)[C@H](Cc1c[nH]cn1)NC(=O)[C@@H](NC(C)=O)C(C)C)[C@@H](C)O)C(=O)N1CCC[C@H]1C(=O)N[C@@H](C)C(=O)N[C@@H](CC(=O)O)C(=O)N[C@@H](CC(C)C)C(=O)N[C@@H](Cc1c[nH]c2ccccc12)C(=O)N[C@@H](CCC(=O)O)C(=O)N[C@@H](Cc1c[nH]c2ccccc12)C(=O)N[C@H](C(=O)N[C@@H](CCCNC(=N)N)C(=O)N[C@@H](CCCNC(=N)N)C(N)=O)C(C)C [SEQ ID NO: 112] (Ac-VHFTIPADLWEWVRR-NH2) |  | < 500 | 8.99 |  |  | < 0.05 |  | -4.76 | 
11 | CC(=O)N[C@H](C(=O)N[C@@H](Cc1c[nH]cn1)C(=O)N[C@H](C(=O)N[C@H](C(=O)N[C@@H](Cc1ccccc1)C(=O)N1CCC[C@H]1C(=O)N[C@@H](C)C(=O)N[C@@H](CC(=O)O)C(=O)N[C@@H](CC(C)C)C(=O)N[C@@H](Cc1c[nH]c2ccccc12)C(=O)N[C@@H](CCC(=O)O)C(=O)N[C@@H](Cc1c[nH]c2ccccc12)C(=O)N[C@H](C(=O)N[C@@H](CCCNC(=N)N)C(=O)N[C@@H](CCCNC(=N)N)C(N)=O)C(C)C)[C@@H](C)O)C(C)C)C(C)C [SEQ ID NO: 114] (Ac-VHVTFPADLWEWVRR-NH2) |  | < 500 | 8.99 |  |  | < 0.05 |  | -0.21 | -3.59
12 | CC[C@H](C)[C@H](NC(=O)[C@@H](NC(=O)[C@@H](NC(=O)[C@H](Cc1c[nH]cn1)NC(=O)[C@@H](NC(C)=O)C(C)C)C(C)C)[C@@H](C)O)C(=O)N1CCC[C@H]1C(=O)N[C@@H](C)C(=O)N[C@@H](CC(=O)O)C(=O)N[C@@H](CC(C)C)C(=O)N[C@@H](Cc1c[nH]c2ccccc12)C(=O)N[C@@H](CCC(=O)O)C(=O)N[C@@H](Cc1c[nH]c2ccccc12)C(=O)N[C@@H](Cc1ccccc1)C(=O)N[C@@H](CCCNC(=N)N)C(=O)N[C@@H](CCCNC(=N)N)C(N)=O [SEQ ID NO: 121] (Ac-VHVTIPADLWEWFRR-NH2) |  | < 500 | 8.99 |  |  | < 0.05 | 47.1 | -0.51 | -1.47
